Laboratory results: patent US6111080A, “Monoclonal antibodies” (Washington University, priority 1993, dated 2000)

Test system: RGD-binding receptor on PMN (B6H12 antigen, heterodimer of 140 kd and 105 kd)
Assay: Cytochrome c-RGDS binding assay (inhibition of 125I-cc-RGDS specific binding to PMN)
Set-up: species or system human
Details: unlabelled inhibitor 500 μg/ml; 40 μg 125I-cc-RGDS, 1.0 × 10^6 PMN, 5,000 units catalase in 1 ml, 30 min at 37° C.; relative to cc-C
Method: Cytochrome c-RGDS was radioiodinated by chloroglycoluril [Markwell and Fox, Biochemistry 17, 4807-4817 (1978)] for 15 min at 0° C. PMN (5.0×10^5) in HBSS^++ -1% OVA were incubated with 10 μg of radiolabelled cc-RGDS in the presence of 5K U/ml of catalase and 293 μg of unlabelled cc-C in a final volume of 250 μl. The reaction mixtures were incubated in 1.5 ml Eppendorf tubes for 30 min at 37° C. The mixtures were overlayered on Versilube (General Electric) and centrifuged at 12,000×g to assess pellet associated radioactivity. Specific binding was determined by subtracting the radioactivity bound in the presence of […] of unlabelled cc-RGDS from the total radioactivity. Unlabelled cc-C was included in the reaction to control for any binding due to cytochrome c and not specifically due to the RGDS moiety. For inhibition tests, the various inhibitors were included in the reaction at the indicated concentrations. Antibodies were incubated with the PMN at the indicated concentrations for 15 min at room temperature prior to the addition of the other reactants.
^a PMN (1.0 × 10^6) were incubated with 40 μg of ^12
Icc-RGDS with the indicated concentrations of unlabelled inhibitors in th
presence of 5,000 units of catalase in 1 ml for 30 min at 37° C.
The PMN were centrifuged through oil and the pelletassociated counts
assessed. […]
^b Calculated from the mean cpm's. […]

- % I (percent inhibition of cc-RGDS specific binding to PMN): 79.6%
Substance: GRGDSC
